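Cells were grown in 96-well plates and exposed to each compound for 48 hours at five concentrations; endpoints were interpolated linearly between bracketing concentrations, or set to the highest concentration if not reached. GI50 = concentration required for 50% inhibition of growth.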 Calls of active or inactive are those of the source. Cut-off read from the data, not from the text of the source: active = GI50 up to about 1.1 µM and inactive = higher.
Tests used:
Assay in all cases: NCI-60 cell line screen, 48 h
SK-MEL-5 = system: SK-MEL-5
NCI-H460 = system: NCI-H460
U-251 = system: U-251
SF-295 = system: SF-295
UACC-62 = system: UACC-62
NCI-H23 = system: NCI-H23
DLD-1 = system: DLD-1
SK-OV-3 = system: SK-OV-3
MCF7 = system: MCF7
HCT-116 = system: HCT-116
DMS-273 = system: DMS-273
HT-29 = system: HT-29
SK-MEL-2 = system: SK-MEL-2
NCI-H226 = system: NCI-H226
HL-60 = system: HL-60
SW-620 = system: SW-620
HCT-15 = system: HCT-15
SNB-19 = system: SNB-19
HOP-92 = system: HOP-92
XF498 = system: XF498
RPMI-8226 = system: RPMI-8226
SF-268 = system: SF-268
UO-31 = system: UO-31
IGROV-1 = system: IGROV-1
SK-MEL-28 = system: SK-MEL-28
EKVX = system: EKVX
NCI-H522 = system: NCI-H522
OVCAR-5 = system: OVCAR-5
NCI/ADR-RES = system: NCI/ADR-RES
SNB-75 = system: SNB-75
UACC-257 = system: UACC-257
LOX IMVI = system: LOX IMVI
HCC 2998 = system: HCC 2998
HOP-62 = system: HOP-62
KM12 = system: KM12
CCRF-CEM = system: CCRF-CEM
A498 = system: A498
CAKI-1 = system: CAKI-1
MOLT-4 = system: MOLT-4
DMS-114 = system: DMS-114
SN12C = system: SN12C
Malme-3M = system: Malme-3M
RXF 393 = system: RXF 393
M19-MEL = system: M19-MEL
COLO 205 = system: COLO 205
SF-539 = system: SF-539
OVCAR-3 = system: OVCAR-3
KM-20L2 = system: KM-20L2
OVCAR-8 = system: OVCAR-8
SNB-78 = system: SNB-78
HOP-18 = system: HOP-18
K562 = system: K562
A549 = system: A549
OVCAR-4 = system: OVCAR-4
LXFL 529 = system: LXFL 529
ACHN = system: ACHN
M14 = system: M14
TK-10 = system: TK-10
786-0 = system: 786-0
SR = system: SR

Cc1c2c(cc3c1[nH]c1ccccc13)C=NCC2
GI50 (SK-MEL-5): 6.41 µM (inactive) | GI50 (NCI-H460): 8.53 µM (inactive) | GI50 (U-251): 13.4 µM (inactive) | GI50 (SF-295): 11.2 µM (inactive) | GI50 (UACC-62): 8.49 µM (inactive) | GI50 (NCI-H23): 19.7 µM (inactive) | GI50 (DLD-1): 4.2 µM (inactive) | GI50 (SK-OV-3): 46.8 µM (inactive) | GI50 (MCF7): 2.92 µM (inactive) | GI50 (HCT-116): 6.34 µM (inactive) | GI50 (DMS-273): 12.6 µM (inactive) | GI50 (HT-29): 14.2 µM (inactive) | GI50 (SK-MEL-2): 10.1 µM (inactive) | GI50 (NCI-H226): 20.7 µM (inactive) | GI50 (HL-60): 5.78 µM (inactive) | GI50 (SW-620): 8.43 µM (inactive) | GI50 (HCT-15): 13.1 µM | GI50 (SNB-19): 18.2 µM (inactive) | GI50 (HOP-92): 3.18 µM (inactive) | GI50 (XF498): 7.14 µM (inactive) | GI50 (RPMI-8226): 10.5 µM (inactive) | GI50 (SF-268): 16.8 µM (inactive) | GI50 (UO-31): 24 µM (inactive) | GI50 (IGROV-1): 16.2 µM (inactive) | GI50 (SK-MEL-28): 7.36 µM (inactive) | GI50 (EKVX): 33 µM (inactive) | GI50 (NCI-H522): 12.9 µM (inactive) | GI50 (OVCAR-5): 22 µM (inactive) | GI50 (NCI/ADR-RES): 12.2 µM (inactive) | GI50 (SNB-75): 10.6 µM (inactive) | GI50 (UACC-257): 7.83 µM (inactive) | GI50 (LOX IMVI): 8.09 µM (inactive) | GI50 (HCC 2998): 21.5 µM (inactive) | GI50 (HOP-62): 31.8 µM (inactive) | GI50 (KM12): 8.65 µM (inactive) | GI50 (CCRF-CEM): 7.48 µM (inactive) | GI50 (A498): 10.5 µM (inactive) | GI50 (CAKI-1): 11.3 µM (inactive) | GI50 (MOLT-4): 7.69 µM (inactive) | GI50 (DMS-114): 6.9 µM (inactive) | GI50 (SN12C): 19 µM (inactive) | GI50 (Malme-3M): 6.61 µM (inactive) | GI50 (RXF 393): 6.89 µM (inactive) | GI50 (M19-MEL): 11.1 µM (inactive) | GI50 (COLO 205): 7.13 µM (inactive) | GI50 (SF-539): 6.37 µM (inactive) | GI50 (OVCAR-3): 1.26 µM (inactive) | GI50 (KM-20L2): 9.51 µM (inactive) | GI50 (OVCAR-8): 10.2 µM (inactive) | GI50 (SNB-78): 19.7 µM (inactive) | GI50 (HOP-18): 9.62 µM (inactive) | GI50 (K562): 6.17 µM (inactive) | GI50 (A549): 15.2 µM (inactive) | GI50 (OVCAR-4): 16.6 µM (inactive)

O=C1C(=Cc2cccs2)C(=O)N(CCc2ccccc2)S(=O)(=O)N1CCc1ccccc1
GI50 (SK-MEL-5): > 50 µM (inactive) | GI50 (NCI-H460): > 50 µM (inactive) | GI50 (U-251): 12.9 µM (inactive) | GI50 (SF-295): > 50 µM (inactive) | GI50 (UACC-62): > 50 µM (inactive) | GI50 (NCI-H23): > 50 µM (inactive) | GI50 (LXFL 529): > 50 µM (inactive) | GI50 (DLD-1): > 50 µM (inactive) | GI50 (SK-OV-3): > 50 µM (inactive) | GI50 (HCT-116): 11.7 µM (inactive) | GI50 (DMS-273): > 50 µM (inactive) | GI50 (HT-29): > 50 µM (inactive) | GI50 (ACHN): 22.6 µM (inactive) | GI50 (SK-MEL-2): > 50 µM (inactive) | GI50 (NCI-H226): > 50 µM (inactive) | GI50 (HL-60): 14 µM (inactive) | GI50 (SW-620): > 50 µM (inactive) | GI50 (HCT-15): > 50 µM | GI50 (SNB-19): > 50 µM (inactive) | GI50 (M14): > 50 µM (inactive) | GI50 (HOP-92): > 50 µM (inactive) | GI50 (XF498): > 50 µM (inactive) | GI50 (RPMI-8226): 20.7 µM (inactive) | GI50 (SF-268): 36.2 µM (inactive) | GI50 (UO-31): > 50 µM (inactive) | GI50 (TK-10): > 50 µM (inactive) | GI50 (IGROV-1): 9.2 µM (inactive) | GI50 (SK-MEL-28): > 50 µM (inactive) | GI50 (EKVX): > 50 µM (inactive) | GI50 (NCI-H522): 15.5 µM (inactive) | GI50 (OVCAR-5): > 50 µM (inactive) | GI50 (SNB-75): > 50 µM (inactive) | GI50 (UACC-257): > 50 µM (inactive) | GI50 (LOX IMVI): 28.9 µM (inactive) | GI50 (HCC 2998): > 50 µM (inactive) | GI50 (KM12): > 50 µM (inactive) | GI50 (CCRF-CEM): 36.9 µM (inactive) | GI50 (MOLT-4): > 50 µM (inactive) | GI50 (DMS-114): 10.4 µM (inactive) | GI50 (SN12C): > 50 µM (inactive) | GI50 (786-0): > 50 µM (inactive) | GI50 (Malme-3M): > 50 µM (inactive) | GI50 (RXF 393): 20.7 µM (inactive) | GI50 (M19-MEL): > 50 µM (inactive) | GI50 (COLO 205): > 50 µM (inactive) | GI50 (SR): > 50 µM (inactive) | GI50 (SF-539): > 50 µM (inactive) | GI50 (OVCAR-3): > 50 µM (inactive) | GI50 (KM-20L2): > 50 µM (inactive) | GI50 (OVCAR-8): > 50 µM (inactive) | GI50 (SNB-78): > 50 µM (inactive) | GI50 (HOP-18): > 50 µM (inactive) | GI50 (K562): 32.7 µM (inactive) | GI50 (A549): > 50 µM (inactive) | GI50 (OVCAR-4): > 50 µM (inactive)
